In one assay the test system is Jurkat T leukemia cells. Description: Cell cycle arrest by flow cytometry (propidium iodide), Jurkat. It is filed as cell-based. The conditions noted are these: 1 μM, 18 h. The protocol: (§1) T47D, ZR-75-1 breast cancer cell lines and PC-3, an androgen-independent prostate cancer cell line were maintained and harvested as described in Example 148. Jurkat T leukemia cells were grown in RPMI 1640 media (Life Technologies, Inc.) +10% FCS (Sigma Chemical Company) in a 5% CO2-95% humidity incubator at 37° C., and maintained at a cell density between 4 and 8×10^5 cells/ml. 1×10^6 cells were induced with 1 μM of 2-amino-3-cyano-7-dimethylamino-4-(3-methoxy-4,5-methylenedioxyphenyl)-4H-chromene or 2-amino-3-cyano-7-dimethylamino-4-(3,4-methylenedioxyphenyl)-4H-chromene for 18 h at 37° C. As a control, cells were also incubated with DMSO. Cells were harvested at 1200 rpm and washed twice with 5 mM EDTA/PBS. Cells were then resuspended in 300 μl EDTA/PBS and […] of 100% ethanol, vortexed and incubated at room temperature for 1 h. Samples were spun down at 12000 rpm for 5 min and the supernatant was removed. A solution containing 100 μg/ml of propidium iodide and 1 mg/ml of RNAse A (fresh) was added to the samples and incubated for 1 h at room temperature. Samples were then transferred to 12×75 mm polystyrene tubes and analysed on a flow cytometer. All flow cytometry analyses were performed on FACScalibur (Becton Dickinson) using Cell Quest analysis software.
On the technique in general: In flow cytometry, cells or beads pass a laser one at a time.

The subject of another assay is T47D cells. The experiment in a line: Cell cycle arrest by flow cytometry (propidium iodide), T47D. The format is cell-based, Human. The conditions noted are these: 1 μM, 18 h. How it is done:
as §1

The subject of assay [1] is T-47D cells. The experiment in a line: Caspase cascade activation assay (N-(Ac-DEVD)-N'-ethoxycarbonyl-R110 fluorogenic substrate) in T-47D. It is filed as cell-based, Human. Particulars: 24 h incubation. How it is done:
(§2) Human breast cancer cell lines T47D and ZR-75-1 were grown according to media component mixtures designated by American Type Culture Collection +10% FCS (Life Technologies, Inc.), in a 5% CO2-95% humidity incubator at 37° C. T-47D and ZR-75-1 cells were maintained at a cell density between 30 and 80% confluency at a cell density of 0.1 to 0.6×10^6 cells/ml. Cells were harvested at 600×g and resuspended at 0.65×10^6 cells/ml into appropriate media +10% FCS . […] An aliquot of 45 μl of cells was added to a well of a 96-well microtiter plate containing 5 μl of a 10% DMSO in RPMI-1640 media solution without test compound as the control sample. The samples were mixed by agitation and then incubated at 37° C. for 24 h in a 5% CO2-95% humidity incubator. After incubation, the samples were removed from the incubator and 50 μl of a solution containing 20 μM of N-(Ac-DEVD)-N′-ethoxycarbonyl-R110 (SEQ ID NO: 1) fluorogenic substrate (Cytovia, Inc.; WO99/18856), 20% sucrose (Sigma), 20 mM DTT (Sigma), 200 mM NaCl (Sigma), 40 mM Na PIPES buffer pH 7.2, and 500 μg/ml lysolecithin (Calbiochem) was added. The samples were mixed by agitation and incubated at room temperature. Using a fluorescent plate reader (Model 1420 Wallac Instruments), an initial reading (T=0) was made approximately 1-2 min after addition of the substrate solution, employing excitation at 485 nm and emission at 530 nm, to determine the background fluorescence of the control sample. After the 3 h incubation, the samples were read for fluorescence as above (T=3 h).
(§3) The Relative Fluorescence Unit values (RFU) were used to calculate the sample readings as follows: RFU(T=3h)−Control RFU (T=0)=Net RFU(T=3h)
(§4) The EC50 (nM) was determined by a sigmoidal dose-response calculation (Prism 2.0, GraphPad Software Inc.).

Assay [2] deals with poly(ADP)ribose polymerase (PARP) cleavage in Jurkat cells. Description: PARP cleavage in Jurkat cells (western blot). It is filed as cell-based. How it is done: A wide range of natural substrates are cleaved by the caspases during apoptosis. One of these is poly(ADP)ribose polymerase (PARP), an enzyme important in genome surveillance. The ability of 2-amino-3-cyano-7-dimethylamino-4-(3-methoxy-4,5-methylenedioxyphenyl)-4H-chromene to induce PARP cleavage was tested by treating Jurkat cells with the compound at a concentration of 2.5 μM for 5, 15 and 30 h. Control cultures were treated with DMSO vehicle or staurosporine, a known apoptosis inducer.

The subject of assay [3] is Jurkat cells. The experiment in a line: Nuclear fragmentation in Jurkat cells (Syto16 staining). It is filed as cell-based. Particulars: 100 nM or higher, 24 h. The protocol: The ability of 2-amino-3-cyano-7-dimethylamino-4-(3-methoxy-4,5-methylenedioxyphenyl)-4H-chromene to induce nuclear fragmentation was tested by treatment of Jurkat cells with the test compound followed by staining of the nucleus with Syto16, a fluorescent DNA dye. The nuclei of Jurkat cells treated with DMSO vehicle are round with dispersed chromatin that is moderately stained with Syto16 (FIG. 1A).

Assay [4] concerns Jurkat cells. Description: Mitotic arrest in Jurkat cells (mitotic figures, Syto 16). Particulars: 6 h. It is filed as cell-based. How it is done:
Jurkat cells were incubated with a range of concentrations of 2-amino-3-cyano-7-dimethylamino-4-(3-methoxy-4,5-methylenedioxyphenyl)-4H-chromene (0.02 μM to 5 μM) for 6 h under normal growth conditions; control cultures were treated with DMSO vehicle. The cells were then treated for 20 min. with 800 nM Syto 16. Cytospin preparations were then prepared and the samples were viewed by fluorescent microscopy using a fluorescein filter set. For each concentration of test compound, the number of mitotic figures were counted and expressed as a percentage of the total number of cells. Three fields from each condition were evaluated and the mean and SEM were calculated and plotted as a function of drug concentration (FIG. 3).

Another assay deals with PC-3 cells. Description: Cell cycle arrest by flow cytometry (propidium iodide), PC-3. It is filed as cell-based. Particulars: 1 μM, 18 h. How it is done:
as §1

The subject of assay [5] is ZR-75-1 cells. The experiment in a line: Inhibition of cell proliferation (GI50), CellTiter 96 AQUEOUS One, ZR-75-1. The format is cell-based. The conditions noted are these: Homo sapiens, ZR-75-1, 48 h. The protocol: (§5) T-47D and ZR-75-1 cells were grown and harvested as in Example 148. An aliquot of 90 μl of cells ([…] cells/ml) was added to a well of a 96-well microtiter plate containing 10 μl of a 10% DMSO in RPMI-1640 media solution containing 1 nM to 100 μM of 2-amino-3-cyano-7-dimethylamino-4-(3-methoxy-4,5-methylenedioxyphenyl)-4H-chromene (Example 19) or other test compound (0.1 nM to 10 μM final). An aliquot of 90 μl of cells was added to a well of a 96-well microtiter plate containing 10 μl of a 10% DMSO in RPMI-1640 media solution without compound as the control sample for maximal cell proliferation (Amax). The samples were mixed by agitation and then incubated at 37° C. for 48 h in a 5% CO2-95% humidity incubator. […] Using an absorbance plate reader (Model 1420 Wallac Instruments), an initial reading (T=0) was made approximately 1-2 min after addition of the solution, employing absorbance at 490 nm. This determines the possible background absorbance of the test compounds. No absorbance for 2-amino-3-cyano-7-dimethylamino-4-(3-methoxy-4,5-methylenedioxyphenyl)-4H-chromene or its analogs was found at 490 nm. […]
(§6) The samples were mixed by agitation and then incubated at 37° C. for 0.5 h in a 5% CO2-95% humidity incubator. […] Absorbance was read as above, (AT=0) defining absorbance for initial cell number used as baseline in GI50 determinations.

Assay [6] has as its system T-47D cells. Description: Inhibition of cell proliferation (GI50), CellTiter 96 AQUEOUS One, T-47D. It is filed as cell-based. Particulars: Homo sapiens, T47D, 48 h. The protocol: as §5, §6
Assay [7] relates to ZR-75-1 cells. Description: Caspase cascade activation assay (N-(Ac-DEVD)-N'-ethoxycarbonyl-R110 fluorogenic substrate) in ZR-75-1. The format is cell-based, Human. Particulars: 24 h incubation. The protocol: as §2, §3, §4
Setting [8] is: ratio of net RFU of test compound to control.

Entries after “also recorded” stand apart in the source; their conditions may differ.

The term EC50 denotes the midpoint of the concentration-response curve. By GI50 is commonly meant the concentration at which growth is held to half of that of the control.

Regarding `COc1cc(C2C(C#N)=C(N)Oc3cc(N(C)C)ccc32)cc2c1OCO2` (stereo not shown) [Example 19, 2-Amino-3-cyano-7-dimethylamino-4-(3-methoxy-4,5-methylenedioxyphenyl)-4H-chromene], the Cell cycle arrest entry with Jurkat T leukemia cells was “progression and arrest in S/G2/M; also recorded: induces cell cycle arrest”; in the assay on T47D cells it was “progression and arrest in G2/M; also recorded: induce cell cycle arrest”; in the assay with PC-3 cells it was “progression and arrest in G2/M; also recorded: induce cell cycle arrest”. Besides, the half-maximal effective concentration (EC50) in the assay on T-47D cells [1] (Homo sapiens, T47D, 0.016 to 1 μM final, read-out: Caspase potency EC50) was 87 nM; in the assay on Jurkat cells [4] (Homo sapiens, 0.02 μM to 5 μM), about 125 nM; in the assay on ZR-75-1 cells [7] (Homo sapiens, 0.016 to 1 μM final, read-out: Caspase potency EC50), 38 nM. The “Caspase activity Ratio” value was determined as 5.5 in the assay on T-47D cells [1] (setting [8]) and 6.3 in the assay with ZR-75-1 cells [7] (setting [8]). The “PARP cleavage at 30 h” value in assay [2] was “virtually all of PARP was converted into its cleaved form”. In addition, in the assay on Jurkat cells [3], the Nuclear fragmentation result was “shrunken and fragmented nuclei”. Moreover, the “Percent mitotic arrest versus drug concentration” value in the assay on Jurkat cells [4] (up to 1.0 μM (FIG. 3)) is recorded as “increasing percent mitotic arrest with increasing drug concentration”. The 50% growth inhibitory concentration (GI50) with ZR-75-1 cells [5] worked out at 500 nM; with T-47D cells [6], 3 nM.
